According to US20240287614A1, “RECIPROCAL MICRORNA-MRNA PAIRINGS AS BIOMARKERS AND THERAPEUTIC TARGETS IN CANCER” (UNIVERSITY OF MARYLAND, EASTERN SHORE, priority 2023, published 2024):

What was measured:
[1] = test system: prostate cancer (LNCaP and PC-3) and prostate cancer (RC77 T/E and MDA PCa 2b) cell lines; assay: Caspase 3/7 activity-based apoptosis assay, prostate cancer cell lines; set-up: species or system human; conditions: for apoptosis (caspase 3/7 activity), docetaxel treatment alone: without miRNA mimic/antagomir transfection
Procedure: […] RC77 T/E, a primary prostate cancer cell line derived from a patient, was kindly provided by Dr. Johng Rhim at Center for Prostate Disease Research (CPDR) in Rockville, MD. LNCaP and PC-3 were served as prostate cancer cell line models, and RC77 T/E and MDA PCa 2b were served as prostate cancer cell models in the study. The cells were cultured in specific cell culture media, LNCaP was cultured in RPMI with 10% fetal bovine serum (FBS), PC-3 was cultured in DMEM with 10% FBS, MDA PCa 2b were cultured in BRFF-HPC1 with 20% FBS and RC77 T/E was cultured in Keratinocyte SFM with Human Recombinant Epidermal Growth Factor (EGF 1-53) and Bovine Pituitary Extract (BPE). Cells were maintained at 37° C. in a 5% CO2 incubator. LNCaP, PC-3 and MDA PCa 2b cells were seeded at density 3×10^4 cells/well in 6-well plates. RC77 T/E cells were seeded at density 5×10^4 cells/well in 6-well plates. The cells were allowed to grow for 24 h and then were either transfected with miR-34a-5p mimic, miR-99b-5p mimic, or miR-96-5p antagomir using DharmaFECT4 transfection reagent (Dharmacon), according to the manufacturer's protocol. After 24 h, the cells were replaced with fresh media then incubated for 24 h. miR-34a-5p mimic, miR-99b-5p mimic, miR-96-5p antagomir, and nonsense miRNA mimic and antagomir controls were purchased from Ambion. Nonsense/scrambled miRNA mimic and antagomir were used as negative controls.
For the measurement of apoptosis initiation by transfection of miRNA mimic or antagomir in prostate cancer cells, the transfected cells 5000 cells/well were seeded onto 96-well cell culture plates (Corning) and then incubated overnight. The miRNA mimic/antagomir transfected cells were then treated with vehicle or […] of Docetaxel. 24 h after the vehicle or drug treatment, the apoptosis assays were performed using Apo-ONE Caspase-3/7 Assay Kit (Promega Corporation) according to the protocol described by the manufacturer. 100 μL of homogeneous Caspase-3/7 reagent was added to the sample plate and incubated at room temperature for 1 h. Fluorescence was detected for measuring the apoptosis state (Caspase 3/7 activity) using Biotek Synergy HT Microplate Reader (BioTek) at wavelengths of 499 nm and 521 nm for excitation and emission, respectively.

PIK3CB = assay: RT-qPCR of PIK3CB expression after miRNA mimic transfection; type: cell-based, human; conditions: African American and European American prostate cancer cells; vs nonsense/scrambled (NS) miRNA control
Procedure: (§1) […] RC77 T/E, a primary prostate cancer cell line derived from a patient, was kindly provided by Dr. Johng Rhim at Center for Prostate Disease Research (CPDR) in Rockville, MD. LNCaP and PC-3 were served as prostate cancer cell line models, and RC77 T/E and MDA PCa 2b were served as prostate cancer cell models in the study. The cells were cultured in specific cell culture media, LNCaP was cultured in RPMI with 10% fetal bovine serum (FBS), PC-3 was cultured in DMEM with 10% FBS, MDA PCa 2b were cultured in BRFF-HPC1 with 20% FBS and RC77 T/E was cultured in Keratinocyte SFM with Human Recombinant Epidermal Growth Factor (EGF 1-53) and Bovine Pituitary Extract (BPE). Cells were maintained at 37° C. in a 5% CO2 incubator. LNCaP, PC-3 and MDA PCa 2b cells were seeded at density 3×10^4 cells/well in 6-well plates. RC77 T/E cells were seeded at density 5×10^4 cells/well in 6-well plates. […]
(§2) For the measurement of gene expression level, total RNA was isolated using miRNeasy Mini Kit (50) (Qiagen) from the prostate cancer cells used in the study. Quantification of total RNA samples were done using NanoVue Plus spectrophotometer (GE Healthcare). […] Reverse transcription was performed using iScript Reverse Transcription Supermix kit (Bio-Rad) to generate cDNA then followed by performing quantitative PCR (qPCR) assays using SsoAdvanced Universal SYBR Green supermix kit (Bio-Rad). […]

HIF1A [2] = assay: RT-qPCR of HIF1A expression after miRNA mimic transfection; type: cell-based, human; conditions: African American and European American prostate cancer cells; vs nonsense/scrambled (NS) miRNA control
Procedure: as §1, §2

IGFBP2 [3] = assay: RT-qPCR of IGFBP2 expression after miRNA mimic transfection; type: cell-based, human; conditions: African American and European American prostate cancer cells; vs nonsense/scrambled (NS) miRNA control
Procedure: as §1, §2

PI3Kβ = assay: Western blot of PI3Kβ in transfected prostate cancer cells; type: cell-based, human; conditions: mimic transfected vs NS transfected
Procedure: as §1
(§3) For measurement of the gene expression at protein level, proteins were extracted using M-PER Mammalian Protein Extraction Reagent (Thermo Fisher Scientific) with protease and phosphatase inhibitor cocktail (Thermo Fisher Scientific). Protein concentrations were quantified using BCA assay kit (Thermo Fisher Scientific). […]

HIF1A [4] = assay: Western blot of HIF1a in transfected prostate cancer cells; type: cell-based, human; conditions: mimic transfected vs NS transfected
Procedure: as §1, §3

IGFBP2 [5] = assay: Western blot of IGFBP2 in transfected prostate cancer cells; type: cell-based, human; conditions: mimic transfected vs NS transfected
Procedure: as §1, §3

[6] = test system: prostate cancer (LNCaP and PC-3) and prostate cancer (RC77 T/E and MDA PCa 2b) cell lines; assay: BrdU-labeling cell proliferation assay; type: cell-based, human; conditions: PC-3, RC77 T/E and MDA PCa 2b, 48 h transfection, vs NS
Procedure: as §1
LNCaP, PC-3, RC77 T/E and MDA PCa 2b cells were seeded at density 3×10^4 cells/well in 6-well culture plates. […] 100 μL of stop solution was used to stop further reaction and followed by checking absorbance at dual wavelengths of 450 nm and 540 nm using Multiskan FC microplate photometer (Thermo Scientific).

[7] = RC77 T/E and MDA PCa 2b, 11 mM of Docetaxel, 24 h

| Molecule | apoptosis (caspase 3/7 activity), docetaxel treatment alone ([1]; LNCaP, 11 mM of Docetaxel, 24 h) | apoptosis (caspase 3/7 activity), docetaxel treatment alone [1, 7] | apoptosis (caspase 3/7 activity), docetaxel treatment alone ([1]; androgen-independent PC-3, 11 mM of Docetaxel, 24 h) | PIK3CB expression (RT-qPCR) (PIK3CB) | HIF1A expression (RT-qPCR) (HIF1A [2]) | IGFBP2 expression (RT-qPCR) (IGFBP2 [3]) | PI3Kβ protein level (Western blot) (PI3Kβ) | HIF1a protein level (Western blot) (HIF1A [4]) | IGFBP2 protein level (Western blot) (IGFBP2 [5]) | cell proliferation (BrdU labeling) [6] | docetaxel-induced cytotoxicity (caspase 3/7 activity), combination with docetaxel ([1]; LNCaP cells, 11 mM of Docetaxel, 24 h) | apoptosis (caspase 3/7 activity), transfection in the presence of docetaxel [1, 7] | cell apoptosis (caspase 3/7 activity) compared with NS transfected cells ([1]; absence of docetaxel (vehicle control), LNCaP, PC-3, RC77 T/E, MDA PCa 2b) |
| --- | --- | --- | --- | --- | --- | --- | --- | --- | --- | --- | --- | --- | --- |
| CC(=O)O[C@@]12CO[C@@H]1C[C@H](O)[C@@]1(C)C(=O)[C@H](O)C3=C(C)[C@@H](OC(=O)[C@H](O)[C@@H](NC(=O)OC(C)(C)C)c4ccccc4)C[C@@](O)([C@@H](OC(=O)c4ccccc4)[C@H]21)C3(C)C [docetaxel, reference compound] | significantly induced apoptosis | not | not |  |  |  |  |  |  |  |  |  |  |
| miR-34a-5p mimic: miRNA mimic of miR-34a-5p (SEQ ID NO: 1, UGGCAGUGUCUUAGCUGGUUGU), purchased from Ambion (listed as RNA, chemistry not given here; listed as Homo sapiens) |  |  |  | decreased | decreased | decreased | downregulated | downregulated | downregulated | reduction | further enhanced | significantly induced apoptosis | overall generalized or significant increase |
